Experimental data taken from ChEMBL document CHEMBL5352426, “Synthesis and anti-tumor activity of nitrogen-containing derivatives of the natural product diphyllin” (Eur J Med Chem, 2022).
Values after ≈ are worked out from the molar mass of the structure shown. Active and inactive are the calls of the source. No cut-off for these calls is given here.

Columns and labels:
PaTu 8988t [1] = assay: Antiproliferative activity against human PaTu 8988t cells assessed as inhibition of cell proliferation incubated for 72 hrs by SRB assay; assay type: functional, cell-based
[2] = Metabolic stability in human liver microsome assessed as hepatic clearance; assay type: ADME; conditions: microsomes
CFPAC-1 [3] = assay: Induction of apoptosis in human CFPAC-1 cells assessed as late apoptotic cells at 10 uM incubated for 24 hrs by annexin V-FITC/PI staining based flow cytometry (reference value: 3.14 %); assay type: functional
[4] = Metabolic stability in human liver microsome assessed as intrinsic clearance; assay type: ADME; conditions: liver microsomes, read-out: CLH
CFPAC-1 [5] = assay: Induction of cell cycle arrest in human CFPAC-1 cells assessed as accumulation at G1 phase at 1000 nM incubated for 24 hrs by flow cytometry (reference value: 58.6 %); assay type: functional
Panc02 [6] = assay: Antiproliferative activity against mouse Panc02 cells assessed as inhibition of cell proliferation at 1 uM incubated for 72 hrs by SRB assay relative to control; assay type: functional
Panc02 [7] = assay: Antitumor activity against […] Panc02 cells xenografted in C57BL/6 mouse assessed as tumor growth inhibition at 10 mg/kg, ip administered every two days for 20 days by electronic caliper method relative to control; assay type: functional; conditions: Panc02, 480 h, time 20 day, read-out: TGI
CFPAC-1 [8] = assay: Induction of apoptosis in human CFPAC-1 cells assessed as late apoptotic cells at 1 uM incubated for 24 hrs by annexin V-FITC/PI staining based flow cytometry (reference value: 3.14 %); assay type: functional
CFPAC-1 [9] = assay: Induction of apoptosis in human CFPAC-1 cells assessed as necrotic cells at 1 uM incubated for 24 hrs by annexin V-FITC/PI staining based flow cytometry (reference value: 0.37 %); assay type: functional
[10] = Metabolic stability in mouse liver microsome assessed as half life; assay type: ADME; conditions: liver microsomes
CFPAC-1 [11] = assay: Antiproliferative activity against human CFPAC-1 cells assessed as inhibition of cell proliferation incubated for 72 hrs by SRB assay; assay type: functional, cell-based; conditions: CFPAC-1, 72 h
[12] = Toxicity in C57BL/6 mouse xenografted with […] cells assessed as drug tolerance at 10 mg/kg, ip administered every two days for 20 days; assay type: organism-based; conditions: in vivo, 480 h, time 20 day
CFPAC-1 [13] = assay: Effect on beclin-1 level in human CFPAC-1 cells at 10 to 1000 nM incubated for 24 hrs by Western blot analysis; assay type: functional, cell-based; conditions: dose 10-1000 nM
CFPAC-1 [14] = assay: Antiproliferative activity against human CFPAC-1 cells assessed as inhibition of cell proliferation at 1 uM incubated for 72 hrs by SRB assay relative to control; assay type: functional
CFPAC-1 [15] = assay: Induction of apoptosis in human CFPAC-1 cells assessed as early apoptotic cells at 1 uM incubated for 24 hrs by annexin V-FITC/PI staining based flow cytometry (reference value: 3.04 %); assay type: functional
CFPAC-1 [16] = assay: Induction of cell cycle arrest in human CFPAC-1 cells assessed as accumulation at S phase at 1000 nM incubated for 24 hrs by flow cytometry (reference value: 24.5 %); assay type: functional
[17] = Toxicity in C57BL/6 mouse xenografted with […] cells assessed as body weight loss at 10 mg/kg, ip administered every two days for 20 days; assay type: organism-based; conditions: in vivo, 480 h, time 20 day
[18] = Metabolic stability in mouse liver microsome assessed as hepatic clearance; assay type: ADME; conditions: microsomes
CFPAC-1 [19] = assay: Induction of cell cycle arrest in human CFPAC-1 cells assessed as accumulation at S phase at 100 nM incubated for 24 hrs by flow cytometry (reference value: 24.5 %); assay type: functional
CFPAC-1 [20] = assay: Induction of apoptosis in human CFPAC-1 cells assessed as viable cells at 10 uM incubated for 24 hrs by annexin V-FITC/PI staining based flow cytometry (reference value: 93.5 %); assay type: functional; conditions: read-out: Activity
[21] = Aqueous solubility of the compound at 1 to 2 mg measured after 24 hrs by HPLC-MS analysis; assay type: physicochemical; conditions: aqueous (not further specified), dose 1-2 mg
[22] = Metabolic stability in human liver microsome assessed as half life; assay type: ADME; conditions: liver microsomes
CFPAC-1 [23] = assay: Induction of cell cycle arrest in human CFPAC-1 cells assessed as accumulation at S phase at 10 nM incubated for 24 hrs by flow cytometry (reference value: 24.5 %); assay type: functional
CFPAC-1 [24] = assay: Induction of apoptosis in human CFPAC-1 cells assessed as early apoptotic cells at 10 uM incubated for 24 hrs by annexin V-FITC/PI staining based flow cytometry (reference value: 3.04 %); assay type: functional
CFPAC-1 [25] = assay: Induction of cell cycle arrest in human CFPAC-1 cells assessed as accumulation at G2 phase at 1000 nM incubated for 24 hrs by flow cytometry (reference value: 14.5 %); assay type: functional
MIA PaCa-2 [26] = assay: Antiproliferative activity against human MIA PaCa-2 cells assessed as inhibition of cell proliferation at 1 uM incubated for 72 hrs by SRB assay relative to control; assay type: functional
CFPAC-1 [27] = assay: Induction of cell cycle arrest in human CFPAC-1 cells assessed as accumulation at G2 phase at 10 nM incubated for 24 hrs by flow cytometry (reference value: 14.5 %); assay type: functional
CFPAC-1 [28] = assay: Induction of cell cycle arrest in human CFPAC-1 cells assessed as accumulation at G2 phase at 100 nM incubated for 24 hrs by flow cytometry (reference value: 14.5 %); assay type: functional
[29] = Metabolic stability in mouse liver microsome assessed as intrinsic clearance; assay type: ADME; conditions: liver microsomes, read-out: CLH
PaTu 8988t [30] = assay: Antiproliferative activity against human PaTu 8988t cells assessed as inhibition of cell proliferation at 1 uM incubated for 72 hrs by SRB assay relative to control; assay type: functional
MIA PaCa-2 [31] = assay: Antiproliferative activity against human MIA PaCa-2 cells assessed as inhibition of cell proliferation incubated for 72 hrs by SRB assay; assay type: functional, cell-based; conditions: MIA PaCa-2, 72 h
CFPAC-1 [32] = assay: Induction of cell cycle arrest in human CFPAC-1 cells assessed as accumulation at G1 phase at 100 nM incubated for 24 hrs by flow cytometry (reference value: 58.6 %); assay type: functional
CFPAC-1 [33] = assay: Induction of cell cycle arrest in human CFPAC-1 cells assessed as accumulation at G1 phase at 10 nM incubated for 24 hrs by flow cytometry (reference value: 58.6 %); assay type: functional
[34] = Antiproliferative activity against human L02 cells assessed as inhibition of cell proliferation incubated for 72 hrs by SRB assay; assay type: toxicity, cell-based
[35] = Antiproliferative activity against human L02 cells assessed as inhibition of cell proliferation at 1 uM incubated for 72 hrs by SRB assay relative to control; assay type: toxicity, cell-based
CFPAC-1 [36] = assay: Induction of apoptosis in human CFPAC-1 cells assessed as viable cells at 1 uM incubated for 24 hrs by annexin V-FITC/PI staining based flow cytometry (reference value: 93.5 %); assay type: functional; conditions: read-out: Activity
CFPAC-1 [37] = assay: Inhibition of autophagy at later stage in human CFPAC-1 cells assessed as increase in LC3-II/LC3-I ratio at 1 uM incubated for 24 hrs in presence of chloroquine by Western blot analysis; assay type: functional, cell-based
CFPAC-1 [38] = assay: Induction of apoptosis in human CFPAC-1 cells assessed as necrotic cells at 10 uM incubated for 24 hrs by annexin V-FITC/PI staining based flow cytometry (reference value: 0.37 %); assay type: functional
Panc02 [39] = assay: Antiproliferative activity against mouse Panc02 cells assessed as inhibition of cell proliferation incubated for 72 hrs by SRB assay; assay type: functional, cell-based; conditions: Panc02, 72 h

COc1cc2c(O)c3c(c(-c4ccc5c(c4)OCO5)c2cc1OC)C(=O)OC3 [DIPHYLLIN]
IC50 (PaTu 8988t [1]): 102 nM
CLH [2]: 13.2 mL/min/kg
Activity (CFPAC-1 [3]): 9.53%
microsomal CLint [4]: 31.6 µL/min/mg
Activity (CFPAC-1 [5]): 81.9%
inhibition at 1 µM (Panc02 [6]): 83.3%
inhibition in vivo at 10 mg/kg (Panc02 [7]): 22.6%
Activity (CFPAC-1 [8]): 7.23%
Activity (CFPAC-1 [9]): 0.86%
half-life [10]: < 5 min
IC50 (CFPAC-1 [11]): 208 nM
Activity [12]: Non-Toxic
Activity (CFPAC-1 [13]): inactive
inhibition at 1 µM (CFPAC-1 [14]): 75.4%
Activity (CFPAC-1 [15]): 1.99%
Activity (CFPAC-1 [16]): 8.14%
Activity [17]: Non-Toxic
CLH [18]: > 83.2 mL/min/kg
Activity (CFPAC-1 [19]): 20.4%
viability at 10 µM (CFPAC-1 [20]): 87.8%
solubility at 24 h [21]: 0.021 µg/mL (≈ 0.0552 µM)
half-life [22]: 43.8 min
Activity (CFPAC-1 [23]): 28.7%
Activity (CFPAC-1 [24]): 2.1%
Activity (CFPAC-1 [25]): 7.81%
inhibition at 1 µM (MIA PaCa-2 [26]): 70.1%
Activity (CFPAC-1 [27]): 10.1%
Activity (CFPAC-1 [28]): 10.6%
microsomal CLint [29]: > 277 µL/min/mg
inhibition at 1 µM (PaTu 8988t [30]): 77.5%
IC50 (MIA PaCa-2 [31]): 271 nM
Activity (CFPAC-1 [32]): 66.7%
Activity (CFPAC-1 [33]): 58.9%
IC50 at 72 h [34]: 3320 nM
inhibition at 72 h, 1 µM [35]: 17.7%
viability at 1 µM (CFPAC-1 [36]): 89.9%
inhibition (CFPAC-1 [37]): Active
Activity (CFPAC-1 [38]): 0.58%
IC50 (Panc02 [39]): 61 nM
